Test results published in patent US7258861B2, “TNF-derived peptides for use in treating oedema” (Innogenetics N.V., priority 2001, dated 2007).

How the values were obtained:
[1] = system: C57/BL6 wild type mice; assay: In situ mouse model of alveolar fluid clearance, wild type mice; type: in vivo; conditions: over 15 min, compared to controls; 0.5 μg/mouse instilled
Method: In situ mouse model. Mice were killed by an overdose of pentobarbital sodium (200 mg/kg i.p.). A tracheotomy was done with a 20-gauge trimmed angiocath plastic needle (Becton Dickinson, Sandy, Utah, USA). The lungs were inflated with 7 cm H2O continuous positive airway pressure (CPAP) with 100% oxygen throughout the experiments. Body temperature was maintained at 37–38° C. by an infra-red lamp placed 30 cm above the body (Fisher, Santa Clara, Calif., USA). The lamp was cycled on and off to maintain the core temperature. A temperature probe (Yellow Springs Instrument, Yellow Springs, Ohio, USA) was inserted via a 0.5 cm incision into the abdominal cavity to monitor the core temperature throughout the experiment. These methods have been reported in Matthay et al., 1996 and Ma et al., 2000. […] We added 0.1 μCi of ^131I-labelled albumin (Merck-Frost, Montreal, PQ, Canada) to the instillate as a labeled alveolar protein tracer. • Group 1: Basal alveolar fluid clearance in the wild type mice (n=3) and TNF-R1/TNF-R2 double knock out mice (n=3). • Group 2: Effect of wild type mTNF (0.5 μg/mouse) stimulated alveolar fluid clearance was measured in wild type mice (n=5) and TNF-R1/TNF-R2 double knock out mice (n=5) (Bruce et al., 1996).

[2] = system: resident peritoneal macrophages; assay: Whole-cell patch clamp in resident peritoneal macrophages; type: cell-based, mouse; conditions: 30 min preincubation, acidic pH
Description: Animals, cells and reagents. Male CBA/J or C57BL/6 mice, as well as male TNFR ½^0/0 C57BL/6 mice deficient in TNF receptors (Bruce et al., 1996) provided by H. Bluethmann, F. Hoffmann-La Roche, Basel, Switzerland, were used at the age of 8–10 weeks. Their care was in accordance with institutional guidelines. Lung microvascular endothelial cells were isolated from CBA/J mice and characterized as described (Jackson et al., 1990) using magnetic beads (Dynabeads M-450, Dynal, Oslo, Norway), covalently bound to a purified rat-anti-mouse PECAM-1 monoclonal antibody (donated by B. Imhof, University of Geneva). Microvascular lung endothelial cells were resuspended in DMEM containing 2 mM L-glutamine, 100 U/ml penicillin, […], 20% FCS, 40 U/ml heparin and […] endothelial cell growth supplement (Brunschwig Chemie, Basel, Switzerland). For patch clamp experiments, cells were plated onto 35×10 mm easy grip Petri dishes (Beckton Dickinson, Plymouth, UK), pre-coated with 0.2% gelatin (Sigma, Buchs, Switzerland). Resident peritoneal macrophages, isolated in ice cold RPMI containing antibiotics and 10 U/ml Heparin, were left to adhere onto 35×10 mm easy grip Petri dishes for 4 h, after which the non-adherent cells were removed. […]
Electrophysiology. […] Currents were recorded with an Axopatch-200A amplifier (Axon Instrument Inc, Foster City, Calif., USA), low pass-filtered at 1 kHz. […]

[3] = system: normal rats; conditions: instillation in normal rats, over 1 hour; cited from earlier work
[4] = Quenching of tryptophan fluorescence by brominated lipids; conditions: acidic pH
Description: In order to investigate whether chloride efflux was due to membrane binding or membrane insertion of TNF, we have analyzed whether brominated lipids were able to quench the intrinsic fluorescence of TNF and mutTNF upon membrane interaction. Brominated lipids have been useful in determining the topology of membrane proteins (Bolon et al., 1990) (Markello et al., 1985) as well as studying the membrane interaction of pore-forming toxins (Gonzalez-Manas et al., 1992) (Van der Goot et al., 1991) (Vecsey-Semjen et al., 1997). TNF contains two tryptophan residues, one at the top of the receptor binding domain and one at the top of the so called tip domain. If the tip of the TNF trimer were to insert into the lipid bilayer, the fluorescence of Trp-113 should be quenched upon insertion into liposomes composed of dioleoylphosphatidylglycerol that had bromines attached at positions 9 and 10 of the acyl chains. We have indeed previously observed that tryptophans located at the boundary between the lipid head groups and the acyl chains were succeptible to bromide quenching.

[5] = system: isolated rat lungs; assay: Isolated blood perfused flooded rat lung (weight, lung mechanics, PV curves, histology)
Method: Rats. For the ex vivo experiments, 31 Sprague-Dawley rats (300 to 350 g) were tracheotomized and mechanically ventilated (40% oxygen in air) under isoflurane anesthesia. The experimental protocol was reviewed and approved by the Ethics Committee for Animal Research and by the Veterinary Office of our institution. The femoral vessels were cannulated for blood sampling, fluid replacement, and continuous arterial blood pressure monitoring. Following anticoagulation (1.5 IU/g i.v. heparin), 20 ml of blood were withdrawn and replaced by an equal volume of dextran-40 (Macrodex 10% in normosaline) to serve as priming volume for the isolated perfusion circuit. The heart-lung block was prepared as described by Ma et al., 2000, weighed and assigned to one of four groups. […] The lungs were suspended, mechanically ventilated, and perfused at constant pressure with autologous blood as described by Ma et al., 2000.
An inspiratory and expiratory quasi-static pressure-volume (PV) curve was performed at the end of the 2-hour reperfusion period by inflating and then deflating the lungs at a constant rate (0.3 ml/sec) using an automated infusion pump. A sigh was applied in all groups every 15 minutes to minimize atelectasis formation. The blood pH was maintained between 7.3 and 7.5 and, if necessary, corrected with sodium bicarbonate 8.4% or a change of the inspired CO2 as required by the blood gas analysis. Every 30 minutes, a blood sample was collected for blood gas analysis as well as for hematocrit and electrolyte concentration.
Inclusion criteria. Immediately following the start of reperfusion, the preparation had to fulfill three technical inclusion criteria: • 1) left atrial pressure (LAP) 5-10 mmHg; • 2) peak airway pressure (AWP) <15 cmH2O; and • 3) pulmonary blood flow (PBF) >10 ml/min. […] The included lungs were then flooded with gentle intratracheal instillation of 2 ml normal saline and the recorded variables measured for 2 subsequent hours.
Histological analysis. Random lung samples were fixed for light and electron microscopy and analyzed by pathologists blinded to the lung's protocol group assignment.

TNF: E.coli-derived recombinant murine TNF
increase in alveolar fluid clearance (AFC) [1]: 24% | whole cell current [2]: significant increase in outward | increase of alveolar liquid clearance [3]: 43% | fluorescence quenching by brominated lipids [4]: unable to see any fluorescence quenching | lung weight change over time after alveolar flooding ([5]; 2 hours reperfusion after 2 ml saline, TNF 5 μg, peptides 1 mg): no significant change in weight over time | lung mechanics (peak AWP, Cdyn, Raw) after alveolar flooding ([5]; 2 hours reperfusion, TNF 5 μg, peptides 1 mg): no difference from the saline-treated group | lower inflection point of inspiratory quasi-static PV curve ([5]; end of 2-hour reperfusion, TNF 5 μg, peptide 1 mg): 20.0±0.8 cmH2O | leukocyte infiltration (lung histology) ([5]; hematoxylin-stained slices, compared to controls): significantly increased leukocyte infiltration | endothelial flaps and epithelial blebs (electron microscopy) ([5]; pretreated lungs after flooding and 2 hours reperfusion): prominent numerous endothelial flaps
